Measurements: PubChem BioAssay (NCI)
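Compound exposure: 48 hours, 5 concentrations, 96-well plates. Abbreviation: GI50, concentration required for 50% inhibition of growth. TGI: total growth inhibition.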

Experiments:
Assay in all cases: NCI-60 cell line screen, 48 h
UACC-257 melanoma = test system: UACC-257 melanoma
SK-MEL-5 melanoma = test system: SK-MEL-5 melanoma
IGROV1 ovarian = test system: IGROV1 ovarian
MCF7 breast = test system: MCF7 breast
TK-10 renal = test system: TK-10 renal
HT29 colon = test system: HT29 colon
786-0 renal = test system: 786-0 renal
HCT-15 colon = test system: HCT-15 colon
NCI/ADR-RES ovarian = test system: NCI/ADR-RES ovarian
SNB-19 CNS = test system: SNB-19 CNS
HOP-92 NSCLC = test system: HOP-92 NSCLC
MOLT-4 leukemia = test system: MOLT-4 leukemia
SK-MEL-2 melanoma = test system: SK-MEL-2 melanoma
CAKI-1 renal = test system: CAKI-1 renal
M14 melanoma = test system: M14 melanoma
NCI-H23 lung = test system: NCI-H23 lung
A549 NSCLC = test system: A549 NSCLC
EKVX NSCLC = test system: EKVX NSCLC
COLO 205 colon = test system: COLO 205 colon
HS 578T breast = test system: HS 578T breast
PC-3 prostate = test system: PC-3 prostate
MALME-3M melanoma = test system: MALME-3M melanoma
ACHN renal = test system: ACHN renal
UO-31 renal = test system: UO-31 renal
SK-MEL-28 melanoma = test system: SK-MEL-28 melanoma
SW-620 colon = test system: SW-620 colon
NCI-H522 lung = test system: NCI-H522 lung
RXF 393 renal = test system: RXF 393 renal
DU-145 prostate = test system: DU-145 prostate
SR leukemia = test system: SR leukemia
SN12C renal = test system: SN12C renal
NCI-H460 lung = test system: NCI-H460 lung
SF-539 CNS = test system: SF-539 CNS
BT-549 breast = test system: BT-549 breast
OVCAR-4 ovarian = test system: OVCAR-4 ovarian
HL-60(TB) leukemia = test system: HL-60(TB) leukemia
OVCAR-3 ovarian = test system: OVCAR-3 ovarian
LOX IMVI melanoma = test system: LOX IMVI melanoma
HCC-2998 colon = test system: HCC-2998 colon
K-562 leukemia = test system: K-562 leukemia
OVCAR-8 ovarian = test system: OVCAR-8 ovarian
KM12 colon = test system: KM12 colon
MDA-MB-231 breast = test system: MDA-MB-231 breast
OVCAR-5 ovarian = test system: OVCAR-5 ovarian
RPMI-8226 leukemia = test system: RPMI-8226 leukemia
U251 CNS = test system: U251 CNS
A498 renal = test system: A498 renal
UACC-62 melanoma = test system: UACC-62 melanoma
SF-295 CNS = test system: SF-295 CNS
SK-OV-3 ovarian = test system: SK-OV-3 ovarian
CCRF-CEM leukemia = test system: CCRF-CEM leukemia
SNB-75 CNS = test system: SNB-75 CNS
SF-268 CNS = test system: SF-268 CNS
HCT-116 colon = test system: HCT-116 colon
NCI-H226 lung = test system: NCI-H226 lung
T-47D breast = test system: T-47D breast
HOP-62 NSCLC = test system: HOP-62 NSCLC
MDA-MB-435 = test system: MDA-MB-435

Compound CC(=O)OC1Oc2ccccc2-c2oc(=O)c(-c3ccc(F)cc3)cc21 (stereo unspecified) has a GI50 (UACC-257 melanoma) of 35.5 µM, a TGI (UACC-257 melanoma) greater than 100 µM and a GI50 (SK-MEL-5 melanoma) of 14.9 µM. It also gave a TGI (SK-MEL-5 melanoma) of 31 µM, a GI50 (IGROV1 ovarian) of 33.5 µM and a TGI (IGROV1 ovarian) greater than 100 µM. It also gave a GI50 (MCF7 breast) of 6.01 µM, a TGI (MCF7 breast) of 40 µM and a GI50 (TK-10 renal) of 26.7 µM. The TGI (TK-10 renal) was 83.8 µM, the GI50 (HT29 colon) was 21.6 µM and the TGI (HT29 colon) was greater than 100 µM. For the same compound, the GI50 (786-0 renal) was 17.7 µM, the TGI (786-0 renal) was 77.3 µM and the GI50 (HCT-15 colon) was 20.9 µM. For the same compound, the TGI (HCT-15 colon) was greater than 100 µM, the GI50 (NCI/ADR-RES ovarian) was 60 µM and the TGI (NCI/ADR-RES ovarian) was greater than 100 µM. For the same compound, the GI50 (SNB-19 CNS) was 30.6 µM, the TGI (SNB-19 CNS) was greater than 100 µM and the GI50 (HOP-92 NSCLC) was 29.6 µM. It also gave a TGI (HOP-92 NSCLC) of 96.9 µM, a GI50 (MOLT-4 leukemia) of 14 µM and a TGI (MOLT-4 leukemia) of 31.1 µM. It also gave a GI50 (SK-MEL-2 melanoma) of 39.5 µM, a TGI (SK-MEL-2 melanoma) greater than 100 µM and a GI50 (CAKI-1 renal) of 30.9 µM. The TGI (CAKI-1 renal) was greater than 100 µM, the GI50 (M14 melanoma) was 25.3 µM and the TGI (M14 melanoma) was 95.8 µM. The GI50 (NCI-H23 lung) was 40.7 µM, the TGI (NCI-H23 lung) was greater than 100 µM and the GI50 (A549 NSCLC) was 38.8 µM. For the same compound, the TGI (A549 NSCLC) was greater than 100 µM, the GI50 (EKVX NSCLC) was 9.46 µM and the TGI (EKVX NSCLC) was 83.3 µM. It also gave a GI50 (COLO 205 colon) of 36.3 µM, a TGI (COLO 205 colon) greater than 100 µM and a GI50 (HS 578T breast) of 10.4 µM. It also gave a TGI (HS 578T breast) of 74.7 µM, a GI50 (PC-3 prostate) of 32.7 µM and a TGI (PC-3 prostate) greater than 100 µM. For the same compound, the GI50 (MALME-3M melanoma) was 21.9 µM, the TGI (MALME-3M melanoma) was 70.7 µM and the GI50 (ACHN renal) was 31.8 µM. The TGI (ACHN renal) was greater than 100 µM, the GI50 (UO-31 renal) was 32.8 µM and the TGI (UO-31 renal) was greater than 100 µM. The GI50 (SK-MEL-28 melanoma) was 32.6 µM, the TGI (SK-MEL-28 melanoma) was greater than 100 µM and the GI50 (SW-620 colon) was 19 µM. It also gave a TGI (SW-620 colon) greater than 100 µM, a GI50 (NCI-H522 lung) of 20.2 µM and a TGI (NCI-H522 lung) of 78.3 µM. It also gave a GI50 (RXF 393 renal) of 26.8 µM, a TGI (RXF 393 renal) of 99.7 µM and a GI50 (DU-145 prostate) of 29 µM. It also gave a TGI (DU-145 prostate) greater than 100 µM, a GI50 (SR leukemia) of 2.86 µM and a TGI (SR leukemia) of 9.08 µM. It also gave a GI50 (SN12C renal) of 35.1 µM, a TGI (SN12C renal) greater than 100 µM and a GI50 (NCI-H460 lung) of 25.2 µM. The TGI (NCI-H460 lung) was greater than 100 µM, the GI50 (SF-539 CNS) was 24.6 µM and the TGI (SF-539 CNS) was 74.6 µM. The GI50 (BT-549 breast) was 23.8 µM, the TGI (BT-549 breast) was 69.1 µM and the GI50 (OVCAR-4 ovarian) was 28.2 µM. It also gave a TGI (OVCAR-4 ovarian) greater than 100 µM, a GI50 (HL-60(TB) leukemia) of 24.9 µM and a TGI (HL-60(TB) leukemia) greater than 100 µM. It also gave a GI50 (OVCAR-3 ovarian) of 23.2 µM, a TGI (OVCAR-3 ovarian) of 71.7 µM and a GI50 (LOX IMVI melanoma) of 16.6 µM. For the same compound, the TGI (LOX IMVI melanoma) was 73.2 µM, the GI50 (HCC-2998 colon) was 24.8 µM and the TGI (HCC-2998 colon) was greater than 100 µM. For the same compound, the GI50 (K-562 leukemia) was 17.1 µM, the TGI (K-562 leukemia) was greater than 100 µM and the GI50 (OVCAR-8 ovarian) was 36.3 µM. For the same compound, the TGI (OVCAR-8 ovarian) was greater than 100 µM, the GI50 (KM12 colon) was 12.2 µM and the TGI (KM12 colon) was 43 µM. It also gave a GI50 (MDA-MB-231 breast) of 33.9 µM, a TGI (MDA-MB-231 breast) greater than 100 µM and a GI50 (OVCAR-5 ovarian) of 66.5 µM. It also gave a TGI (OVCAR-5 ovarian) greater than 100 µM, a GI50 (RPMI-8226 leukemia) of 24.6 µM and a TGI (RPMI-8226 leukemia) of 60.3 µM. It also gave a GI50 (U251 CNS) of 16.8 µM, a TGI (U251 CNS) greater than 100 µM and a GI50 (A498 renal) of 28.3 µM. For the same compound, the TGI (A498 renal) was 71.9 µM, the GI50 (UACC-62 melanoma) was 10.8 µM and the TGI (UACC-62 melanoma) was 33.6 µM. For the same compound, the GI50 (SF-295 CNS) was 23.3 µM, the TGI (SF-295 CNS) was greater than 100 µM and the GI50 (SK-OV-3 ovarian) was 35 µM. For the same compound, the TGI (SK-OV-3 ovarian) was greater than 100 µM, the GI50 (CCRF-CEM leukemia) was 23.4 µM and the TGI (CCRF-CEM leukemia) was 55.2 µM. For the same compound, the GI50 (SNB-75 CNS) was 5.59 µM, the TGI (SNB-75 CNS) was 41.7 µM and the GI50 (SF-268 CNS) was 29.6 µM. For the same compound, the TGI (SF-268 CNS) was greater than 100 µM, the GI50 (HCT-116 colon) was 31.5 µM and the TGI (HCT-116 colon) was greater than 100 µM. For the same compound, the GI50 (NCI-H226 lung) was 29.7 µM, the TGI (NCI-H226 lung) was 78.1 µM and the GI50 (T-47D breast) was 22.5 µM. The TGI (T-47D breast) was 93.3 µM, the GI50 (HOP-62 NSCLC) was 8.79 µM and the TGI (HOP-62 NSCLC) was 40.2 µM. It also gave a GI50 (MDA-MB-435) of 4.33 µM and a TGI (MDA-MB-435) of 40.3 µM.
